Laboratory results reported in patent US20240173289A1, “USE OF OXYMETHYL-MODIFIED DERIVATIVE OF QUERCETIN IN PREPARATION OF DRUG FOR INHIBITING TUMOR CELL PROLIFERATION” (ZHEJIANG UNIVERSITY, priority 2021, published 2024).
Converted amounts (≈) assume the structure as drawn.

Assays:
Type in all cases: cell-based
[1] = system: gastric cancer cell line BGC-823; experiment: in vitro cell proliferation inhibition (CCK-8); settings: Homo sapiens, BGC-823, BGC823, 48 h incubation, read-out: IC50
Text: (§1) Osteosarcoma cell line 143B, HOS, and U2, liver cancer cell line HepG2, breast cancer cell line MDA-MB-231 and T47D, gastric cancer cell line AGS, BGC-823, and SGC-7901, cervical cancer cells Hela, lung cancer cells A549, intestinal cancer cells Caco2, mouse glioma cells BV-2, human prostate cancer cells PC3, human thyroid cancer cell line BCPAP, human normal liver cell line L02, human normal gastric cell line GES, human umbilical vein epithelial cells HUVEC, and human embryonic lung fibroblasts WI-38 were cultured in a DMEM medium containing 10% fetal bovine serum and 1×HEPES in a humid incubator (37° C., 5% CO2). The cells were passaged with trypsin-EDTA in logarithmic phase. Certain density of cells (AGS, T47D, Caco2, BCPAP, GES, HUVEC 1×10^5 cells per well; HepG2, MDA-MB-231, BGC-823, A549, PC3, L02 8×10^4 cells per well; 143B, HOS, U2, SGC-7901, Hela, BV-2, 5×10^4 cells per well; WI-38, 3×10^5 cells per well) were inoculated in a 96-well plate, and cultured for 24 h before treatment. After replacing a fresh medium, 12.5 mg/L to 400 mg/L of quercetin, quercetin 3-methyl ether, and quercetin 3,3′-dimethyl ether dissolved with DMSO were added into the medium (a final volume ratio was 0.1%, and the DMSO was used as a […]). After incubation for 48 h, a complete medium was replaced with a serum-free medium containing 10% CCK-8 reagent. The absorbance at 450 nm and 620 nm was measured separately after the cells were incubated for 1 h. Each experiment was repeated three times independently.
as §1, with “400 mg/L,” for “400 mg/L”, “of” for “of quercetin, quercetin 3-methyl ether, and”, “DMSO was” for “DMSO were”, “into a” for “into the”

lung cancer cells A549 = experiment: in vitro cell proliferation inhibition (CCK-8); settings: Homo sapiens, 48 h incubation, read-out: IC50
Text: as §1
as §1, with “400 mg/L,” for “400 mg/L”, “of” for “of quercetin, quercetin 3-methyl ether, and”, “DMSO was” for “DMSO were”, “into a” for “into the”

[2] = system: breast cancer cell line T47D; experiment: in vitro cell proliferation inhibition (CCK-8); settings: Homo sapiens, 48 h incubation, read-out: IC50
Text: as §1
as §1, with “400 mg/L,” for “400 mg/L”, “of” for “of quercetin, quercetin 3-methyl ether, and”, “DMSO was” for “DMSO were”, “into a” for “into the”

[3] = system: Osteosarcoma cell line U2; experiment: in vitro cell proliferation inhibition (CCK-8); settings: 48 h incubation, read-out: IC50
Text: as §1
as §1, with “400 mg/L,” for “400 mg/L”, “of” for “of quercetin, quercetin 3-methyl ether, and”, “DMSO was” for “DMSO were”, “into a” for “into the”

[4] = system: cervical cancer cells Hela; experiment: in vitro cell proliferation inhibition (CCK-8); settings: Homo sapiens, 48 h incubation, read-out: IC50
Text: as §1
as §1, with “400 mg/L,” for “400 mg/L”, “of” for “of quercetin, quercetin 3-methyl ether, and”, “DMSO was” for “DMSO were”, “into a” for “into the”

mouse glioma cells BV-2 = experiment: in vitro cell proliferation inhibition (CCK-8); settings: Mus musculus, Glioma cell, BV2, 48 h incubation, read-out: IC50
Text: as §1
as §1, with “400 mg/L,” for “400 mg/L”, “of” for “of quercetin, quercetin 3-methyl ether, and”, “DMSO was” for “DMSO were”, “into a” for “into the”

[5] = system: Osteosarcoma cell line 143B; experiment: in vitro cell proliferation inhibition (CCK-8); settings: Homo sapiens, 48 h incubation, read-out: IC50
Text: as §1
as §1, with “400 mg/L,” for “400 mg/L”, “of” for “of quercetin, quercetin 3-methyl ether, and”, “DMSO was” for “DMSO were”, “into a” for “into the”

[6] = system: intestinal cancer cells Caco2; experiment: in vitro cell proliferation inhibition (CCK-8); settings: Homo sapiens, Caco-2, 48 h incubation, read-out: IC50
Text: as §1
as §1, with “400 mg/L,” for “400 mg/L”, “of” for “of quercetin, quercetin 3-methyl ether, and”, “DMSO was” for “DMSO were”, “into a” for “into the”

[7] = system: human thyroid cancer cell line BCPAP; experiment: in vitro cell proliferation inhibition (CCK-8); settings: Homo sapiens, 48 h incubation, read-out: IC50
Text: as §1
as §1, with “400 mg/L,” for “400 mg/L”, “of” for “of quercetin, quercetin 3-methyl ether, and”, “DMSO was” for “DMSO were”, “into a” for “into the”

[8] = system: gastric cancer cell line SGC-7901; experiment: in vitro cell proliferation inhibition (CCK-8); settings: Homo sapiens, SGC-7901, SGC7901, 48 h incubation, read-out: IC50
Text: as §1
as §1, with “400 mg/L,” for “400 mg/L”, “of” for “of quercetin, quercetin 3-methyl ether, and”, “DMSO was” for “DMSO were”, “into a” for “into the”

[9] = system: Osteosarcoma cell line HOS; experiment: in vitro cell proliferation inhibition (CCK-8); settings: 48 h incubation, read-out: IC50
Text: as §1
as §1, with “400 mg/L,” for “400 mg/L”, “of” for “of quercetin, quercetin 3-methyl ether, and”, “DMSO was” for “DMSO were”, “into a” for “into the”

[10] = system: breast cancer cell line MDA-MB-231; experiment: in vitro cell proliferation inhibition (CCK-8); settings: Homo sapiens, 48 h incubation, read-out: IC50
Text: as §1
as §1, with “400 mg/L,” for “400 mg/L”, “of” for “of quercetin, quercetin 3-methyl ether, and”, “DMSO was” for “DMSO were”, “into a” for “into the”

[11] = system: human prostate cancer cells PC3; experiment: in vitro cell proliferation inhibition (CCK-8); settings: Homo sapiens, 48 h incubation, read-out: IC50
Text: as §1
as §1, with “400 mg/L,” for “400 mg/L”, “of” for “of quercetin, quercetin 3-methyl ether, and”, “DMSO was” for “DMSO were”, “into a” for “into the”

[12] = system: gastric cancer cell line AGS; experiment: in vitro cell proliferation inhibition (CCK-8); settings: 48 h incubation, read-out: IC50
Text: as §1
as §1, with “400 mg/L,” for “400 mg/L”, “of” for “of quercetin, quercetin 3-methyl ether, and”, “DMSO was” for “DMSO were”, “into a” for “into the”

[13] = system: liver cancer cell line HepG2; experiment: in vitro cell proliferation inhibition (CCK-8); settings: Homo sapiens, 48 h incubation, read-out: IC50
Text: as §1
as §1, with “400 mg/L,” for “400 mg/L”, “of” for “of quercetin, quercetin 3-methyl ether, and”, “DMSO was” for “DMSO were”, “into a” for “into the”

HepG2 cells = experiment: scratch test, metastasis capacity; settings: 1 mg/L, after 1 d (24 h) of incubation
Experimental: HepG2 cells with a cell density of 5×10^5/mL were plated on a 6-well plate (1 mL per well), added to a DMEM medium containing 10% fetal calf serum, and cultured overnight to form a monolayer of cells. A horizontal scratch was scratched on the monolayer of cells with a pipette tip of 200 μL, washed with PBS 3 times, added into a DMEM medium containing 10% fetal bovine serum, and then added with 1 mg/L of a quercetin 3,3′-dimethyl ether solution, while DMSO was used as a solvent control, and then incubated for 24 h.

COc1cc(-c2oc3cc(O)cc(O)c3c(=O)c2OC)ccc1O [Quercetin 3,3′-dimethyl ether, quercetin 3,3′-dimethyl ether] was tested, and the IC50 [1] was 26.1 µg/mL (≈ 78.9 µM), the IC50 (lung cancer cells A549) was 17.4 µg/mL (≈ 52.6 µM) and the IC50 [2] was 13.3 µg/mL (≈ 40.4 µM). For the same compound, the IC50 [3] was 49.5 µg/mL (≈ 150 µM), the IC50 [4] was 11.1 µg/mL (≈ 33.7 µM) and the IC50 (mouse glioma cells BV-2) was 21.1 µg/mL (≈ 63.9 µM). It also gave an IC50 [5] of 21.6 µg/mL (≈ 65.5 µM), an IC50 [6] of 21.4 µg/mL (≈ 64.8 µM) and an IC50 [7] of 12.3 µg/mL (≈ 37.2 µM). For the same compound, the IC50 [8] was 28.4 µg/mL (≈ 85.9 µM), the IC50 [9] was 18.6 µg/mL (≈ 56.3 µM) and the IC50 [10] was 11.4 µg/mL (≈ 34.5 µM). For the same compound, the IC50 [11] was 31.3 µg/mL (≈ 94.7 µM), the IC50 [12] was 15.8 µg/mL (≈ 47.9 µM) and the IC50 [13] was 5.85 µg/mL (≈ 17.7 µM). The “intercellular space (scratch) versus control group” value (HepG2 cells) was “significantly higher”.
